Results reported in the NIST ThermoML archive (doi:10.1016/j.fluid.2013.11.002).
Numbers after ± are expanded uncertainties.

Assays:
[1] = refractive index (Na D-line) (dimensionless); xn = mol fraction of the nth substance listed; conditions: 101 kPa, Liquid, Standard Abbe refractometry
[2] = refractive index (Na D-line) (dimensionless); conditions: 101.33 kPa, Liquid, Standard Abbe refractometry

Row | SMILES | refractive index ([1]; 298.15 K, x1 = 0.01) | refractive index ([1]; 298.15 K, x1 = 0.02) | refractive index ([1]; 298.15 K, x1 = 0.03) | refractive index ([1]; 298.15 K, x1 = 0.04) | refractive index ([1]; 298.15 K, x1 = 0.05) | refractive index ([1]; 298.15 K, x1 = 0.06) | refractive index ([1]; 298.15 K, x1 = 1) | refractive index ([1]; 303.15 K, x1 = 0.01) | refractive index ([1]; 303.15 K, x1 = 0.02) | refractive index ([1]; 303.15 K, x1 = 0.03) | refractive index ([1]; 303.15 K, x1 = 0.04) | refractive index ([1]; 303.15 K, x1 = 0.05) | refractive index ([1]; 303.15 K, x1 = 0.06) | refractive index ([1]; 303.15 K, x1 = 1) | refractive index ([2]; 298.15 K) | refractive index ([2]; 303.15 K)
1 | C1CCOC1 [tetrahydrofuran] + O | 1.3371 ± 0.0005 | 1.3409 ± 0.0005 | 1.3448 ± 0.0005 | 1.348 ± 0.0005 | 1.351 ± 0.0005 | 1.354 ± 0.0005 | 1.4061 ± 0.0006 | 1.3366 ± 0.0005 | 1.3401 ± 0.0005 | 1.3431 ± 0.0005 | 1.347 ± 0.0005 | 1.3496 ± 0.0005 | 1.3521 ± 0.0005 | 1.4041 ± 0.0006 | – | –
2 | O [water] | – | – | – | – | – | – | – | – | – | – | – | – | – | – | 1.3331 ± 0.0005 | 1.3326 ± 0.0005
